Experimental data: patent publication US20040152903A1, “6-chloro-3-pyridylmethylpropylamine derivatives, preparation process thereof and bactericides” (priority 2004, published 2004)

Key:
[1] = tested on: wheat powdery mildew; assay: Test of control effect on wheat powdery mildew; format: in vivo; set-up: Control Value: scale not given here; conditions: wettable powder 125 mg/l, 100 liters/10 a, wheat seedlings (Nourin 64), examined 9th to 14th day after inoculation
Protocol: (Test of Control Effect on Wheat Powdery Mildew) Wettable powders were prepared from compounds of the present invention I-1 to I-27 and comparative compounds (a) to (d), (m-1) and (m-3). The obtained wettable powder was diluted and suspended with water to provide the predetermined concentration (125 mg/l), and was sprinkled onto seedlings of wheat (variety: “Nourin 64”) at the first to the second leaf period which were cultivated using square plastic pots (size: 6.4 cm×6.4 cm) in a rate of 100 liters/10 a (ares). After drying the sprinkled leaves with air, a suspension of wheat powdery mildew spores taken from infected leaves was inoculated by spraying onto the sprinkled leaves. They were supervised in a green house (temperature: 20 to 24° C., relative humidity: 20 to 70 RH). On the 9th to 14th day after the inoculation, the infection degree was examined according to the following scale and the control value of each compound was calculated by the following calculation equation 1. [table]

[2] = tested on: Microdochium nivale; assay: Antifungal activity test (PDA plate, hypha extension inhibition); format: cell-based; conditions: 3.2 ppm in PDA culture medium
Protocol: (§1) (Antifungal Activity Test against Various Pathogenic Fungi) For each of the compounds I-1 to 27 of the present invention and the comparative compounds (a) to (d), (m-1) and (m-3), 20 mg was weighed and dissolved in 2 ml of dimethylsulfoxide, and a double dilution row in 10 steps was prepared by further using dimethylsulfoxide. A 0.6 ml portion of these solutions was each added to 60 ml of a PDA culture medium (potato-dextrose-agar culture medium) at about 60° C., they were well mixed in a 100 ml Erlenmeyer flask, the solution was poured into a schale and was solidified, the plate culture media containing the compounds according to the present invention with final concentrations of 100, 50.0, 25.0, 12.5, 6.3, 3.2, 1.6, 0.8, 0.4 and 0.2 mg/l were prepared. On the other hand, the specimen bacteria cultured on the plate culture media beforehand was punched by a 4 mm diameter cork borer, and was inoculated on the plate culture media containing the aforementioned chemicals. After the inoculation, the bacteria were cultured at the optimum growth temperature of each bacterium for 1 to 7 days (for this optimum growth temperature, LIST OF CULTURES 1996 Microorganisms 10th edition published by Fermentation Research Institute (Foundation) can be referred to.), and the growth of the bacteria was measured by the diameter of a colony. […]

[3] = tested on: Leptosphaeria nodorum; assay: as above; format: cell-based; conditions: 0.8 ppm in PDA culture medium
Protocol: (Antifungal Activity Test against Various Pathogenic Fungi) For each of the compounds I-1 to 27 of the present invention and the comparative compounds (a) to (d), (m-1) and (m-3), 20 mg was weighed and dissolved in 2 ml of dimethylsulfoxide, and a double dilution row in 10 steps was prepared by further using dimethylsulfoxide. A 0.6 ml portion of these solutions was each added to 60 ml of a PDA culture medium (potato-dextrose-agar culture medium) at about 60° C., they were well mixed in a 100 ml Erlenmeyer flask, the solution was poured into a schale and was solidified, the plate culture media containing the compounds according to the present invention with final concentrations of 100, 50.0, 25.0, 12.5, 6.3, 3.2, 1.6, 0.8, 0.4 and 0.2 mg/l were prepared. On the other hand, the specimen bacteria cultured on the plate culture media beforehand was punched by a 4 mm diameter cork borer, and was inoculated on the plate culture media containing the aforementioned chemicals. After the inoculation, the bacteria were cultured at the optimum growth temperature of each bacterium for 1 to 7 days (for this optimum growth temperature, LIST OF CULTURES 1996 Microorganisms 10th edition published by Fermentation Research Institute (Foundation) can be referred to.), and the growth of the bacteria was measured by the diameter of a colony. […] R=100(dc−dt)/dc (Equation 3) [wherein each symbol is shown as follows: R=Hypha extension inhibition rate (%), dc=Diameter of colony on no-treated plate, dt=Diameter of colony on chemical-treated plate.] The results obtained above was evaluated in 5 steps in accordance with the following examination scale. <Growth Inhibition> 5: Hypha extension inhibition rate of 90% or more 4: Hypha extension inhibition rate of from 70% to less than 90% 3: […] 2: […] In addition, the abbreviations in Table 10 are as follows: L.n: Leptosphaeria nodorum

[4] = tested on: Pyricularia oryzae; format: cell-based; conditions: 12.5 ppm in PDA culture medium
[5] = tested on: Pseudocercosporella herpotrichoides; assay: Antifungal activity test (PDA plate, hypha extension inhibition); format: cell-based; conditions: 25 ppm in PDA culture medium
Protocol: as §1

| SMILES | Control Value [1] | Growth Inhibition M.n (3.2) [2] | Growth Inhibition L.n (0.8) [3] | Growth Inhibition P.o (12.5) [4] | Growth Inhibition P.h (25) [5] |
| --- | --- | --- | --- | --- | --- |
| CC(Cc1ccc(C(F)(F)F)c(F)c1F)CN(C)Cc1ccc(Cl)nc1 (stereo not shown) [Compound I-10] | 100 | 4 (Hypha extension inhibition rate of from 70% to less than 90%) | 4 (Hypha extension inhibition rate of from 70% to less than 90%) | 4 (Hypha extension inhibition rate of from 70% to less than 90%) | 5 (Hypha extension inhibition rate of 90% or more) |
| CC(Cc1ccc2c(c1)OC(F)(F)O2)CN(C)Cc1ccc(Cl)nc1 (stereo not shown) [Compound I-24] | 100 | 4 (Hypha extension inhibition rate of from 70% to less than 90%) | 5 (Hypha extension inhibition rate of 90% or more) | 4 (Hypha extension inhibition rate of from 70% to less than 90%) | 5 (Hypha extension inhibition rate of 90% or more) |
